The source of these data is patent publication US8598157B2, “5-alkynyl-pyridines” (Boehringer Ingelheim International GmbH, priority 2011, dated 2013).

Test [1] has as its target PI3Kalpha (Homo sapiens (Human), UniProt P42336). Description: Inhibition of PI3Kalpha-induced PIP-2 phosphorylation (filter-binding assay). In kind it is biochemical. Conditions: 33P-ATP, p85alpha/His-p110alpha, read-out: IC50 PI3Kα. The text has this:
Inhibition of PI3Kalpha-Induced PIP-2 Phosphorylation
This PI3Kalpha assay provides an IC50 value indicative of the activity of the compounds to inhibit PI3 kinase alpha activity. Inhibition of PI3 kinase would be expected to be indicative of activity in treating conditions of excessive or anomalous cell proliferation, such as cancers. See also J. A. Engelman, Nature Reviews Cancer, 2009, 9, 550-562; A. Carnero, Expert Opin. Investig. Drugs, 2009, 18, 1265-1277 and P. Liu et al., Nature Reviews Drug Discovery, 2009, 8, 627-64.
Method Type: Filter-Binding-Assay
Aliquoted in desired amounts and stored at −80° C. Final assay concentration 25 ng/well • Phosphotyrosin PDGFRbeta-peptide H-CGG-pY-[…]-pY-VPMLDM-NH2 was synthesized by Jerini Peptide Technologies (JPT) and used in a final conc. of 1.7 μM (stock 100 μM prepared in Assay buffer with DTT, aliquoted in desired amounts and stored at −80° C.) • Cold ATP (from Sigma; A-7699), 100 μM stock solution in H2O, use 1 μM final concentration in assay • [33P]-ATP, 370 MBq/ml from Amersham (#AH9968), use 0.5 μCi/well (10 mCi/ml) • Clear 96-well plates from Greiner (#655 162) • Filter plates: Perkin Elmer UniFilter GF/B #6005177 • Microscint 0 (from Perkin Elmer, #6013611) 2. Assay Procedure
The substrate-containing lipid vesicles are dissolved to a concentration of 0.637 mg lipid blend/ml assay buffer (with BSA, freshly added) in 50 ml Falcon->keep on ice, followed by ultrasonication (pulse of 15 sec followed by a pause of 10 sec, 4×). Compounds are serially diluted in assay buffer+6% DMSO and […] of each dilution is added per well of a 96-well plate (compounds are tested in duplicates) and mixed with 30 μl of the lipid vesicles containing PDGFR-Peptide ([…]) and PI3K alpha (25 ng/well final). The mixture is then incubated for 20 minutes at room temperature. Subsequently, 20 μl of assay buffer containing […] cold ATP and 0.5 μCi/20 μl 33P-ATP are added. The plates are then incubated at room temperature for 120 minutes (shaking with 300 rpm).
The reaction mix is transferred onto filter plates using “filtermate harvester” from Packard: filter plates are rinsed with PBS, then the reaction mix is filtered onto the filter plate, washed 5 times with PBS and are allowed to dry for 30-60 minutes at 50° C.
The plate bottom is sealed with Perkin Elmer white adhesive foil and 25 μl/well Microscint( ) are added, the top is covered with transparent adhesive foil and the plate is measured with Wallac Trilux 1450 Microbeta Counter.
As positive control serve wells containing vehicle controls (1% DMSO in assay buffer), showing non-inhibited kinase activity (high values). Wells containing assay buffer instead of enzyme can serve as control for background activity (low values).
Calculate IC50 values using the Smiley program (based on GrapPad Prism)

Test [2] concerns BT474 cells. Nature of the test: alamarBlue BT474 cell assay (antiproliferative/cytotoxicity). Type of test: cell-based. The note with it: BT-474 human breast cancer cell line. The text has this: (§1) The H460, MB453, U87, MCF7 and BT474 alamarBlue cell assays provide EC50 values indicative of the antiproliferative or cytotoxic effects of the compounds to respectively the H460 (human non small cell line cancer), MB-453 (breast cancer cell line), U87 (glioblastoma cell line), MCF7 (breast cancer cell line) and BT474 (breast cancer cell line). As known in the field, antiproliferative or cytotoxic effect against this cell lines would be expected to be indicative of activity in treating lung, breast and brain cancers. See R. Marone R et al. Biochim. Biophys. Acta. 2008 January; 1784(1):159-85. S. Yaguchi et al., J. Natl. Cancer Inst. 2006 Apr. 19; 98(8):545-56.
(§2) Method Type: Antiproliferative/Cytotoxicity
(§3) alamarBlue® is designed to provide a rapid and sensitive measure of cell proliferation and cytotoxicity in various human and animal cell lines. The assay is based on the reduction of alamarBlue in the reducing environment of living (metabolically active) cells. In the presence of added cytotoxic or antiproliferative compounds, the innate metabolic activity ceases.
(§4) AlamarBlue is soluble and stable in culture medium. Measurements are made fluorometrically by exciting at 530-560 nm and measuring emission at 590 nm. In reporting percent alamarBlue reduction by monitoring fluorescence, data are expressed as fluorescence emission intensity units as a function of time of incubation.
(§5) 3. Equipment • 96-well plates, flat bottom (Falcon, Cat. No.: 353072) • 96-well plates, U-shaped (Costar, Cat. No.: 3799) • CO2-Incubator • Microplate Reader, Spectramax Plus, Molecular Devices 4. Typical Procedure • Day 0: Seed 3000 BT-474 cells (IMDM/5% FCS, 1% NEAA, 1% Sodiumpyruvat) in 150 μl medium into a 96-well plate, flat bottom (include mediumblank). Incubate plates at 37° C. in a CO2 incubator overnight. • Day 1: Dilute compounds to a concentration 40 μM->1:3 in medium, 10 dilution steps, in 96-well plates. • Add 50 μl per well of each dilution (total volume per well 200 μl; final conc. of cpds: 10 μM->1:3). If required, test further dilutions. • All concentrations are tested in duplicates. • Controls: Cells w/o cpd. (+50 μl medium/DMSO). • Cells are incubated with compounds for 5-6 days. • Day 6 or 7: Add 25 μl of alamarBlue solution to each well and incubate for 8 hours at 37° C. Measure fluorescence by exciting at 530-560 nm and measuring emission at 590 nm. 5. Evaluation • Subtract average value for medium blank from sample readings • Calculate EC50 using GraphPad Prism (Fifty)

Test [3] concerns H460 cells. Nature of the test: alamarBlue H460 cell assay (antiproliferative/cytotoxicity). Type of test: cell-based. Conditions: NCI-H460; H460 human lung carcinoma cells.
Description: as §1, §2, §3, §4, §5

In test [4] the test system is U87 cells. Nature of the test: U87 cell assay (antiproliferative/cytotoxicity). Type of test: cell-based. The note with it: U-87MG human glioblastoma cells.
Description: as §1, §2, §3, §4, §5

Test [5] deals with MB453 cells. Description: alamarBlue MB453 cell assay (antiproliferative/cytotoxicity). In kind it is cell-based. The note with it: Homo sapiens; MDA MB 453 breast cancer cell line.
Description: as §1, §2, §3, §4, §5

Chain of PI3Kalpha (P42336 whole entry): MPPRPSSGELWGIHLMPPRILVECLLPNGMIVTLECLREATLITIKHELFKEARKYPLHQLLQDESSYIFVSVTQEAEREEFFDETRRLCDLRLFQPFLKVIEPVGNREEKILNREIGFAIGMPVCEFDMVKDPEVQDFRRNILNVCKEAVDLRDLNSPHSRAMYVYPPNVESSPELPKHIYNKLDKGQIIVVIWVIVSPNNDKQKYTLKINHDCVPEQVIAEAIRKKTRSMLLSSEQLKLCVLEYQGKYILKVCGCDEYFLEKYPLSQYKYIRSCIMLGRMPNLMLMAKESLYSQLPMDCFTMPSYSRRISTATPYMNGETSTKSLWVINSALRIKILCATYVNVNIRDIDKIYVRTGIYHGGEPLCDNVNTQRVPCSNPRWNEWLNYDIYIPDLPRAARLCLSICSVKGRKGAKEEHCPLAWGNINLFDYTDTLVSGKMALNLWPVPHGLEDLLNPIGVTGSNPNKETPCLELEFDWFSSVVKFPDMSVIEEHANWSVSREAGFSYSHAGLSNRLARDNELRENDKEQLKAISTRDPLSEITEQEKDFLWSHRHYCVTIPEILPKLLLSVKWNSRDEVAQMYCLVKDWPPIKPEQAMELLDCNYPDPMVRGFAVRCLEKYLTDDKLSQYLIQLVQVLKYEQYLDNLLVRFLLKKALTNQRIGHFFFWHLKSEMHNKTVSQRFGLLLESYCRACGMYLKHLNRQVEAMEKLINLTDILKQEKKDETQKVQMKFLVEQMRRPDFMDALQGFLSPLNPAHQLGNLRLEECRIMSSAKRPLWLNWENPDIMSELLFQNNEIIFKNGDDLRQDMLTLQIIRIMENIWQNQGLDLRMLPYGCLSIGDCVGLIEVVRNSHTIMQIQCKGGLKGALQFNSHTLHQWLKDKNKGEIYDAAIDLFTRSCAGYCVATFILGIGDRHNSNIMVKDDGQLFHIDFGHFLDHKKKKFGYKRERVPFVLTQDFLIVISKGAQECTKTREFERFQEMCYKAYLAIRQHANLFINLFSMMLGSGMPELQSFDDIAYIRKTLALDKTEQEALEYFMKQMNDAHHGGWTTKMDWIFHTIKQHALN

Take `CCc1ncnc(N2CCOCC2)c1C#Cc1cnc(OC)c(NS(=O)(=O)CCOC)c1` [Example I-78, 2-Methoxy-ethanesulfonic acid [5-(4-ethyl-6-morpholin-4-yl-pyrimidin-5-ylethynyl)-2-methoxy-pyridin-3-yl]-amide]: the IC50 in test [1] is 0.002 µM. This molecule displayed a concentration giving a half-maximal response (EC50) in test [2] of 0.469 µM.
In the same order, the values of `CCc1ncnc(N2CCOCC2)c1C#Cc1cnc(OC)c(NS(=O)(=O)c2ccco2)c1` [Example I-80, Furan-2-sulfonic acid [5-(4-ethyl-6-morpholin-4-yl-pyrimidin-5-ylethynyl)-2-methoxy-pyridin-3-yl]-amide] are 0.00055 µM and 0.04 µM.
In turn, `CCc1ncnc(N2CCCCC2)c1C#Cc1cnc(C)c(NS(C)(=O)=O)c1` [Example I-44, N-[5-(4-Ethyl-6-piperidin-1-yl-pyrimidin-5-ylethynyl)-2-methyl-pyridin-3-yl]-methanesulfonamide] returned a concentration giving a half-maximal response (EC50) in test [3] of 0.117 µM. For the same molecule, the IC50 in test [1] was found to be 0.002 µM.
With `COc1ncc(C#Cc2c(C)ncnc2N2CCOCC2)cc1NS(=O)(=O)c1ccccc1OC(F)(F)F` [Example I-82, 2-Trifluoromethoxy-N-[2-methoxy-5-(4-methyl-6-morpholin-4-yl-pyrimidin-5-ylethynyl)-pyridin-3-yl]-benzenesulfonamide], the concentration for a half-maximal effect (EC50) in test [3] turned out to be 0.024 µM; in test [4], 0.05 µM; in test [2], 0.025 µM; in test [5], 0.027 µM. Besides, in test [1], the IC50 turned out to be 0.0005 µM.
Consider `CCc1nc(N)nc(N2CCCCC2)c1C#Cc1cnc(C)c(NS(C)(=O)=O)c1` [Example I-36, N-[5-(2-Amino-4-ethyl-6-piperidin-1-yl-pyrimidin-5-ylethynyl)-2-methyl-pyridin-3-yl]-methanesulfonamide], for which, in test [1], the IC50 was 0.005 µM.
With `CCc1ncnc(N2CCOCC2)c1C#Cc1cnc(OC)c(NS(=O)(=O)CC)c1` [Example I-76, Ethanesulfonic acid [5-(4-ethyl-6-morpholin-4-yl-pyrimidin-5-ylethynyl)-2-methoxy-pyridin-3-yl]-amide], the IC50 in test [1] is 0.002 µM. In test [2], the EC50 amounted to 0.342 µM.
For the molecule `CCc1ncnc(NC)c1C#Cc1cnc(C)c(NS(C)(=O)=O)c1` [Example I-33, N-[5-(4-Ethyl-6-methylamino-pyrimidin-5-ylethynyl)-2-methyl-pyridin-3-yl]-methanesulfonamide], in test [1], the IC50 is 0.049 µM.
In the case of `CCc1ncnc(N2CCOCC2)c1C#Cc1cnc(OC)c(NS(=O)(=O)C2CC2)c1` [Example I-77, Cyclopropanesulfonic acid [5-(4-ethyl-6-morpholin-4-yl-pyrimidin-5-ylethynyl)-2-methoxy-pyridin-3-yl]-amide], in test [1], the IC50 was found to be 0.001 µM. For the same molecule, a half-maximal response in test [2] (EC50) required 0.263 µM.
As to `CCc1ncnc(N2CCC(C)(O)CC2)c1C#Cc1cnc(C)c(NS(C)(=O)=O)c1` [Example I-42, N-{5-[4-Ethyl-6-(4-hydroxy-4-methyl-piperidin-1-yl)-pyrimidin-5-ylethynyl]-2-methyl-pyridin-3-yl}-methanesulfonamide], the EC50 in test [3] was 0.295 µM. Besides, in test [1], the IC50 was determined as 0.00055 µM.
With `CCc1ncnc(N2CCOCC2)c1C#Cc1cnc(OC)c(NS(=O)(=O)c2cccs2)c1` [Example I-79, Thiophene-2-sulfonic acid [5-(4-ethyl-6-morpholin-4-yl-pyrimidin-5-ylethynyl)-2-methoxy-pyridin-3-yl]-amide], the IC50 in test [1] came to 0.00075 µM. In test [2], this molecule gave an EC50 of 0.02 µM.
As for `Cc1ncc(C#Cc2c(C)ncnc2N2CCCOCC2)cc1NS(=O)(=O)c1ccccc1` [Example I-73, N-[2-Methyl-5-(4-methyl-6-[1,4]oxazepan-4-yl-pyrimidin-5-ylethynyl)-pyridin-3-yl]-benzenesulfonamide], in test [1], the IC50 came to 0.002 µM. For the same molecule, a half-maximal effect in test [2] (EC50) was put at 1.94 µM.
Consider `Cc1ncc(C#Cc2c(C)ncnc2N(C)CC2CCOC2)cc1NS(=O)(=O)c1ccccc1` (centres unmarked) [Example I-72, N-(2-Methyl-5-{4-methyl-6-[methyl-(tetrahydro-furan-3-ylmethyl)-amino]-pyrimidin-5-ylethynyl}-pyridin-3-yl)-benzenesulfonamide], for which the IC50 in test [1] turned out to be 0.008 µM. The molecule further displayed an EC50 in test [2] of 5.16 µM.
The molecule `CCc1nc(N)nc(N2CCC(O)CC2)c1C#Cc1cnc(C)c(NS(C)(=O)=O)c1` [Example I-35, N-{5-[2-Amino-4-ethyl-6-(4-hydroxy-piperidin-1-yl)-pyrimidin-5-ylethynyl]-2-methyl-pyridin-3-yl}-methanesulfonamide] gave an EC50 in test [3] of 25 µM. The IC50 in test [1] amounted to 0.005 µM.
In the same order, the values of `CCc1nc(N)nc(N2CCC(C)(O)CC2)c1C#Cc1cnc(C)c(NS(C)(=O)=O)c1` [Example I-43, N-{5-[2-Amino-4-ethyl-6-(4-hydroxy-4-methyl-piperidin-1-yl)-pyrimidin-5-ylethynyl]-2-methyl-pyridin-3-yl}-methanesulfonamide] are 3.67 µM and 0.003 µM.
`Cc1ncc(C#Cc2c(C)ncnc2N2CCOC[C@H]2C)cc1NS(=O)(=O)c1ccccc1` [Example I-69, N-{2-Methyl-5-[4-methyl-6-((R)-3-methyl-morpholin-4-yl)-pyrimidin-5-ylethynyl]-pyridin-3-yl}-benzenesuIfonamide]: the IC50 in test [1] came out at 0.002 µM. The molecule also yielded an EC50 in test [2] of 0.749 µM.
On the same counts, the results for `Cc1ncc(C#Cc2c(C)ncnc2N2CCOC[C@@H]2C)cc1NS(=O)(=O)c1ccccc1` [Example I-70, N-{2-Methyl-5-[4-methyl-6-((S)-3-methyl-morpholin-4-yl)-pyrimidin-5-ylethynyl]-pyridin-3-yl}-benzenesulfonamide] are 0.0002 µM and 0.615 µM.
On the same counts, the results for `CCc1ncnc(N2CCOCC2)c1C#Cc1cnc(OC)c(NS(C)(=O)=O)c1` [Example I-75, N-[5-(4-Ethyl-6-morpholin-4-yl-pyrimidin-5-ylethynyl)-2-methoxy-pyridin-3-yl]-methanesulfonamide] are 0.001 µM and 0.247 µM.

A word on the IC50: it is the concentration that gives 50% inhibition. For orientation: EC50 means the midpoint of the concentration-response curve.
